A short description of assay [1]: Deodorizing effect (chemical deodorization, gas detector tube). The note with it: 400 ppm, spray 20 cc. From the text: In order to evaluate tests on deodorizing effects, the present Example examined deodorizing effects by using standards regarding air freshening and deodorization ([II]-2 Method of Testing Deodorizing Efficacy (Chemical Deodorization)) set forth by the Air Fresheners and Deodorizers Conference (http://www.houkou.gr.jp/) as the efficacy testing method, which is adopted by Japan Food Research Laboratories.
Ammonium odor: Ammonium Standard Solution II (Wako Pure Chemical Industries, for testing malodorous substances) Amine odor: methyl mercaptan standard solution (Wako Pure Chemical Industries, for testing malodorous substances) Sulfur odor: hydrogen sulfide (self-made, used hydrogen sulfide that was generated by adding sulfuric acid to zinc sulfide)
Gas detector tube made by GASTEC Corporation Ammonium odor: Detector tube ammonium 3 L made by GASTEC Corporation Amino odor: Detector tube methyl mercaptan 71 made by GASTEC Corporation Sulfur odor: Detector tube hydrogen sulfide 4 LL made by GASTEC Corporation
Tests were conducted in compliance with ([II]-2 Method of Testing Deodorizing Efficacy (Chemical Deodorization)) set forth by the Air Fresheners and Deodorizers Conference.
The tests were carried out by static culture method, using a commercially-available airbag with a spigot having a volume of about 10 L as test containers. The volume of airbags was appropriately changed in accordance with the size of the product.
The bags were filled with odorless air. Malodor concentrations were measured over time at room temperature (about 20° C.). (3 points or higher, detection tube method (FIG. 16), measured by an instrument analysis method or olfactory measurement method. When decrease in the blank was observed, the decrease was suitably corrected. When measuring by olfactory measuring method, the airbag spigot was opened for direct sniffing, or gas was transferred to an odor bag while wearing a mask to perform olfactory measurement in an autonomic respiration form. Measured air was not returned to the source).
For ammonium odor, the residual concentrations were detected and recorded for control (no specimen), 20 ml (cc) of distilled water, sodium hypochlorite (expressed as Na hypochlorite, 400 ppm), and chlorous acid aqueous solution (expressed as CAAS, 400 ppm) prior to spraying and 0 hour, 3 hours, 6 hours, 9 hours, and 24 hours after spraying.
It is known that an odorous substance adsorbs to an airbag and naturally decreases when the odorous substance is in the airbag. In this regard, the amount of loss due to such a natural decrease was measured to normalize the observed values in a control segment.
For the values, the values of the raw data were recorded. The concentration prior to spraying was adjusted and the controls were normalized to be 100. The results are shown in the following Table (In the Table, Cont indicates controls and h indicates time).

Assay [2] deals with pathogenic microbes. Nature of the assay: Sterilizing effect on floor surface when treating vomit, summary over all tested microbes and floors. Format: cell-based. From the text:
1) Chlorous acid aqueous solution formulation (see Example 1: Table 11) Treatment sheet (material: 100% cotton): (about 27×40 cm) *Impregnated at a ratio of weight of treatment sheet (g): amount of liquid (ml)=1:3 2) Imitation vomit Miso solution: adjusted to pH of 2 with hydrochloric acid 3) Test Microbes that were Used E. coli: Escherichia coli IF03927 Staphylococcus aureus: Staphylococcus aureus IF0 12732 Thermoduric Microbes (Bacillus cereus): Bacillus cereus NBRC15305 Microbes of the genus Salmonella: Salmonella Enteritidis IF03313 Enterohemorrhagic Escherichia coli O157: Escherichia coli O157 Enterohemorrhagic Escherichia coli O111: Escherichia coli O111 Enterohemorrhagic Escherichia coli O26: Escherichia coli O26
(1) Imitation vomit was spread in an area about the size of an A4 sheet. (2) 5 agent solution-containing treatment sheets were laid thereon. (3) The imitation vomit was wiped off. (4) A cotton swab was soaked with sterile saline. A portion where imitation vomit was spread was scrubbed with the cotton swab to collect microbes remaining on the floor. After suspending in saline, the solution was spread on a petri dish and cultured. The number of each of the microbes was measured. […]
(1) Imitation vomit was spread in an area about the size of an A4 sheet. […] The number of each of the microbes was measured. […]

On to `OCl` [Sodium Hypochlorite, sodium hypochlorite], for which the “residual concentration of ammonium, after correction (Control = 100)” value is on record as 9 in assay [1] (0 h after spraying); 17 in assay [1] (3 h after spraying); 21 in assay [1] (6 h after spraying); 23 in assay [1] (9 h after spraying); 28 in assay [1] (24 h after spraying); 100 in assay [1] (before spraying). The “residual concentration of ammonium, before correction” value amounted to 30 ppm in assay [1] (0 h after spraying); 50 ppm in assay [1] (3 h after spraying); 50 ppm in assay [1] (6 h after spraying); 40 ppm in assay [1] (9 h after spraying); 40 ppm in assay [1] (24 h after spraying); 320 ppm in assay [1] (before spraying). The figures for the “sterilization of pathogenic microbes on floor surface by wiping” value in assay [2] (day 0) and in assay [2] (preserved for 7 days) were “could be sterilized” and “there were cases in which pathogenic microbes could not be sterilized”, respectively.
